Test results published in patent US20110275569A1, “PROTEASES TARGETING AGENTS” (CONSIGLIO NAZIONALE DELLE RICERCHE, priority 2008, published 2011).
Where two headings read alike, the source gives them in different places.

How the values were obtained:
proteasome = assay: Cell-free proteasome assay with purified proteasome fraction; assay type: biochemical
Protocol: (§1) The proteasome down-regulation via APEH inhibition has been investigated. On the basis of the hypothesis that APEH can be used as a target to indirectly control/modulate proteasome functions in tumoral cells, an in vitro approach using the SsCEI 2, SsCEI 3 and SsCEI 4 peptides in the Caco-2 (human colon carcinoma) cell line has been carried out. To this end, differentiated Caco-2 cells were treated with peptides or with a specific proteasome inhibitor (MG132), for 48 h. […] The results were compared to those obtained in the cell-free assays, where a purified proteasome fraction was used.

[1] = target: T1, porcine acylamino-acid-releasing enzyme (AARE or APEH) (Sus scrofa, UniProt P19205); assay: Inhibition of porcine acylamino-acid-releasing enzyme; assay type: biochemical; settings: for IC50: IC50 towards porcine acylamino-acid-releasing enzyme (AARE or APEH)
T1 sequence (P19205 1-732): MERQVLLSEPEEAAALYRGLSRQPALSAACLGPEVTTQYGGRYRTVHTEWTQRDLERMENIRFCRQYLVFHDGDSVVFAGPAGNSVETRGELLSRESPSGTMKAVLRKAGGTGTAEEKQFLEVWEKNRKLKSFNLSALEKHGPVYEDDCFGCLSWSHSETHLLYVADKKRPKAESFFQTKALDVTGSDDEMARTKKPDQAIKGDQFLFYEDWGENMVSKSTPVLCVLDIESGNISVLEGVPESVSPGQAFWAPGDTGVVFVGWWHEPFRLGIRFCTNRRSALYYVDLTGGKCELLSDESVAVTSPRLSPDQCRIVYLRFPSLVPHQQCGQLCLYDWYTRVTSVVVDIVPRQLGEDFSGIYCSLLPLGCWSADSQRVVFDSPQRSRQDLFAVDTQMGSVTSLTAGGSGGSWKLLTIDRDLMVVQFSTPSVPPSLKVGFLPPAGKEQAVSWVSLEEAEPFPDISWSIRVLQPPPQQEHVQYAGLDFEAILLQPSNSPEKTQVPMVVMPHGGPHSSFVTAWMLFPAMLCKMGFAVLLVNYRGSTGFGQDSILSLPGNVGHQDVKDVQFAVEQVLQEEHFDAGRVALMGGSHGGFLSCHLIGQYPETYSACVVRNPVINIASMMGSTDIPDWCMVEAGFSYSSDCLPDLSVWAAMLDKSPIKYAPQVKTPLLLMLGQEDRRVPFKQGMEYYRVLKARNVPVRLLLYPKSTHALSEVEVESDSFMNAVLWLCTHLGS
Protocol: The SsCEI 1 to 4 reported in the Example 1 were tested for ability to inhibit the activity of human acylamino-acid-releasing enzyme. Stock solutions (1 mM) of each lyophilized compounds were prepared in DMSO 100% and stored at 4° C. Inhibition effectiveness of each compound was determined by measuring enzyme activity both in the presence and absence of compounds. The activity of human acylamino-acid-releasing enzyme (AARE) was measured by using the chromogenic substrate N-acetyl-Ala-pNA (Bachem) (40 μM in DMSO 100%) as described above. […] Then, the substrate was added to the incubation mixture and the hydrolysis was performed for 20 min at 37° C. (FIG. 5). The data were fitted with the GraphPad Prism software. This analysis allowed the determination of IC50 values, which represent the concentrations at which the inhibition reached 50%. […] The IC50 values (See Table IV), obtained as average of 3-5 separate determinations, confirmed the utility of the compounds +of the present invention as effective AARE inhibitors.
The experiment described in example 7 has been performed using the porcine acylamino-acid-releasing enzyme. […] The efficiency of SsCEI 4 can be ascribed to the APEH preference for an alanine residue, with respect to the leucine, at the P1 site, assuming that the SsCEI-APEH association occurs in a substrate-like manner

[2] = tested on: proteasome in Caco-2 (human colon carcinoma) cells; assay: Proteasome activity in Caco-2 cells treated with peptides for 48 h; assay type: cell-based; settings: for proteasomal activity in Caco-2 cells (in words): differentiated Caco-2 cells
Protocol: as §1

Caco-2 cells = assay: Cytotoxicity by lactate dehydrogenase (LDH) activity in cell-culture media; assay type: cell-based, human; settings: up to the highest concentration used (200 μM)
APEH in Caco-2 cells = assay: APEH activity in Caco-2 cells treated with peptides; assay type: cell-based, human; settings: 48 h, dose-dependent decrease
Protocol: as §1

caspase-3 = assay: Caspase-3 activity after peptide treatment of Caco-2 cells; assay type: cell-based, human
Excerpt: To elucidate the molecular mechanisms associated with the inhibition of the proteasome, the effects of treatments with the SsCEI 2 and SsCEI 4 peptides on the activation of caspases have been evaluated.

Row | Substance | proteasome activity in cell-free systems (proteasome) | IC50 [1] [µM] | type of inhibition of porcine APEH ([1]; Lineweaver-Burk plot) | Ki ([1]; porcine APEH, Lineweaver-Burk plot, read-out: Ki APEH) [µM] | residual proteasome activity with respect to untreated cultures ([2]; Caco-2 cells, dose-dependent decrease) | proteasomal activity in Caco-2 cells (in words) [2] | cytotoxic effects, LDH activity levels in cell-culture media (Caco-2 cells) | residual APEH activity with respect to untreated cultures (APEH in Caco-2 cells) | caspase-3 activity (caspase-3) | Ki [1] [µM]
1 | H-TILAEIKNINAD-NH2 [SsCEI 4, TILAEIKNINAD] | did not affect proteasome activity | 35 ± 0.8 | competitive inhibitor | 4 ± 0.8 | up to 45% | markedly reduced proteasomal activity | not associated with any cytotoxic effects | up to 45% | increased in a dose dependent manner | 
2 | H-TILLEIKNINAD-NH2 [SsCEI 2, TILLEIKNINAD] |  |  |  |  |  | markedly reduced proteasomal activity | not associated with any cytotoxic effects |  |  | 
3 | H-YAIDTILAEIKNINAD-NH2 [SsCEI 3, YAIDTILAEIKNINAD] |  | 20 ± 0.4 |  |  |  | unable to affect proteasome |  |  |  | 20 ± 0.4
